Experimental data reported in patent US5773459A, “Urea- and thiourea-type compounds” (Sugen, Inc., priority 1995, dated 1998).
pIC50: −log10 of the molar value.

Molecular target: T1, FLK-1 receptor (Mus musculus, UniProt P35918)
T1 construct: expressed in transfected cells; host or cells: NIH3T3 C7#3 (FLK-1 infected cells)
Test: ELISA Assay to Measure Kinase Activity of FLK-1 Receptor in FLK-1/NIH Cells
Format: cell-based, murine
Conditions: cellular, VEGF stimulated; read-out: ELISA DATA: FLK-1 - (Cell.)
Description: For purposes of this application, although the nomenclature of the human and murine counterparts of the generic "flk-l" receptor differ, they are, in many respects, interchangeable. The murine receptor, FLK1, and its human counterpart, KDR, share a sequence homology of 93.4% within the intracellular domain. Likewise, murine FLK-1 binds human VEGF with the same affinity as mouse VEGF, and accordingly, is activated by the ligand derived from either species. Millauer et al., 1993, Cell 72:835-846; Quinn et al., 1993, Proc. Natl. Acad. Sci. USA 90:7533-7537. FLK-1 also associates with and subsequently tyrosine phosphorylates human RTK substrates (e.g., PLC-γ or p85) when coexpressed in 293 cells (human embryonal kidney fibroblasts).
Models which rely upon the FLK-1 receptor therefore are directly applicable to understanding the KDR receptor. For example, use of the murine FLK-1 receptor in methods to identify compounds which regulate the signal transduction pathway are directly applicable to the identification of compounds which may be used to regulate the human signal transduction pathway, and more specifically, activity related to the KDR receptor. Chemical compounds identified as inhibitors of KDR/FLK-1 in vitro, will be confirmed in suitable in vivo models.
ELISA Assay to Measure Kinase Activity of FLK-1 Receptor in FLK-1/NIH Cells […]

T1 sequence (P35918 20-1345): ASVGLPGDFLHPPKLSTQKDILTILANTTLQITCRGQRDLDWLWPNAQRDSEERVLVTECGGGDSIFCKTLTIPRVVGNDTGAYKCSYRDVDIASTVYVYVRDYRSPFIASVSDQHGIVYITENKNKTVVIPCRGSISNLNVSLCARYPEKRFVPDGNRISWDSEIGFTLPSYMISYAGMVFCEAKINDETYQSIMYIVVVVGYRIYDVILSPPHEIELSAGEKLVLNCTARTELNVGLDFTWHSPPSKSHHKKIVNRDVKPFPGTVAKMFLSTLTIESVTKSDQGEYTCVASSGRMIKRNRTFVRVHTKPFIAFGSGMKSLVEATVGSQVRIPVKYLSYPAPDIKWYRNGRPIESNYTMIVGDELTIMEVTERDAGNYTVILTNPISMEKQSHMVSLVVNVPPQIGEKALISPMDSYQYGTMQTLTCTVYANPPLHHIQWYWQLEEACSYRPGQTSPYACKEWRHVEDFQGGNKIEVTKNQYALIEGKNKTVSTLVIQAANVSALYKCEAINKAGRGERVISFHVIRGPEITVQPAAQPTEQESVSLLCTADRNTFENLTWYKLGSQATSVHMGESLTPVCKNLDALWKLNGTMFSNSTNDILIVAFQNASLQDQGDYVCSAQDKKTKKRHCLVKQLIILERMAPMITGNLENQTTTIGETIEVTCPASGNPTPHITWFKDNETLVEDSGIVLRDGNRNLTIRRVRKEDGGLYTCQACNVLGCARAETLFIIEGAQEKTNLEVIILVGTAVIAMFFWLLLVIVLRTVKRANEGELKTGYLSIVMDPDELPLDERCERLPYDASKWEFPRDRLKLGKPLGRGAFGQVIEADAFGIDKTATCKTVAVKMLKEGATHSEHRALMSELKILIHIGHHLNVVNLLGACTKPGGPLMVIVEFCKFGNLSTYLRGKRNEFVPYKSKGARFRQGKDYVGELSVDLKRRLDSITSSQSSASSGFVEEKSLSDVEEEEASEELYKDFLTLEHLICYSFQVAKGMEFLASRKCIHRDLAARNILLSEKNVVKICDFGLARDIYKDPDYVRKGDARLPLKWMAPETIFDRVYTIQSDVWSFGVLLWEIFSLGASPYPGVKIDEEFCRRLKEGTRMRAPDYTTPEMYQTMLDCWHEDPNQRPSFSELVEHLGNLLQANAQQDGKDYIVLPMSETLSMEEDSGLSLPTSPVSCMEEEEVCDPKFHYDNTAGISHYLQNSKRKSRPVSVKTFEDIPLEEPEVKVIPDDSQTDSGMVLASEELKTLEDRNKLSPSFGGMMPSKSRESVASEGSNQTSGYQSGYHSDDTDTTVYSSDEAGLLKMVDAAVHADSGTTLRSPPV

pIC50	Structure (SMILES)
6.00	CC(C)S(=O)(=O)c1csc(NC(=O)Nc2ccc(C(C)(C)C)cc2)c1Cl [Example Z1, N-[3-Chloro-4-(isopropylsulfonyl)thien-2-yl]-N'-(4-t-butylphenyl)urea]
< 4.00	CC(C)S(=O)(=O)c1csc(NC(=O)Nc2cc(C(F)(F)F)cc(C(F)(F)F)c2)c1Cl [Example Z2, N-[3-Chloro-4-(isopropylsulfonyl)thien-2-yl]-N'-(3,5-di-trifluoromethylphenyl)urea]
